Measured values from US20090270386A1, “THERAPEUTIC COMPOUNDS” (ALLERGAN, INC., priority 2008, published 2009).

Columns and labels:
normotensive dogs = test: Intraocular pressure reduction in normotensive dogs; assay type: in vivo
Method: U.S. Pat. No. 7,091,231 describes the methods used for these in vivo tests.
Compounds such as those described in the above are tested in vivo to measure its ability to reduce intraocular pressure. Compound 14a is tested in normotensive dogs.

[1] = test system: laser-induced hypertensive monkeys; test: Intraocular pressure reduction in laser-induced hypertensive monkeys; assay type: in vivo
[2] = test system: lashes and adjacent hairs of glaucoma patients; test: Observation of eyelash/hair growth in glaucoma patients treated in one eye; assay type: in vivo, humans; conditions: glaucoma patients treated unilaterally
Source text: In the course of treating patients having glaucoma, treatment may only be appropriate in one eye. […] The lash appearance on the lids of the treated eyes would have appeared quite attractive if it represented a bilateral phenomenon. As a result of its asymmetric nature, the long lashes on one side could be construed as disturbing from a cosmetic standpoint. A systemic examination was preformed as a result of the asymmetric phenomenon. It soon became apparent that this altered appearance was not an isolated finding. […] Definite differences could be identified to varying degrees in the lashes and adjacent hairs of all patients who were taking the drug on a unilateral basis for longer than 6 months.
The changes in the lashes were apparent on gross inspection in several patients once attention was focused on the issue. In those with light colored hair and lashes, the differences were only seen easily with the aid of the high magnification and lighting capabilities of the slit lamp biomicroscope. In the course of glaucoma follow-up examination, attention is generally immediately focused on the eye itself. As a result of the high power magnification needed only one eye is seen at a time and the eye is seen at a high enough power that the lashes are not in focus. […]

SMILES | intraocular pressure (IOP) change from baseline (normotensive dogs) | IOP change from baseline [1] | lash appearance in treated eye versus non-treated eye [2]
O=C(OCCO)c1ccc(CCCC2C(Cl)CCC2COc2cc(Cl)cc(CO)c2)s1 (centres unmarked) [Compound 51a] | decreases from baseline | decreases from baseline | –
O=C(OCCN1CCOCC1)c1ccc(CCCC2C(=O)CCC2COc2cc(Cl)cc(CO)c2)s1 (centres unmarked) [Compound 46b] | decreases from baseline | decreases from baseline | –
O=C(OCCN1CCOCC1)c1ccc(CCCC2=CCC(O)C2COc2cc(Cl)cc(Cl)c2)s1 (centres unmarked) [Compound 68b] | decreases from baseline | decreases from baseline | –
O=C(OCCN1CCOCC1)c1ccc(CCCC2C(F)CC(O)C2COc2cc(Cl)cc(Cl)c2)s1 (centres unmarked) [Compound 70b] | decreases from baseline | decreases from baseline | –
O=C(OCCO)c1ccc(CCCC2C(Cl)CC(O)C2COc2cc(Cl)cc(CO)c2)s1 (centres unmarked) [Compound 34a] | decreases from baseline | decreases from baseline | –
O=C(OCCN1CCOCC1)c1ccc(CCCC2C(Cl)CC(O)C2COc2cc(Cl)cc(Cl)c2)s1 (centres unmarked) [Compound 33b] | decreases from baseline | decreases from baseline | –
O=C(OCCO)c1ccc(CCCC2C(F)CC(O)C2COc2cc(Cl)cc(Cl)c2)s1 (centres unmarked) [Compound 70a] | decreases from baseline | decreases from baseline | –
N#CC1CC(O)C(COc2cc(Cl)cc(Cl)c2)C1CCCc1ccc(C(=O)OCCN2CCOCC2)s1 (centres unmarked) [Compound 58b] | decreases from baseline | decreases from baseline | –
O=C(OCCN1CCOCC1)c1ccc(CCCC2C(Cl)CCC2COc2cc(Cl)cc(CO)c2)s1 (centres unmarked) [Compound 51b] | decreases from baseline | decreases from baseline | –
Cc1cc(C)cc(OCC2C(O)CC(Cl)C2CCCc2ccc(C(=O)OCCO)s2)c1 (centres unmarked) [Compound 35a] | decreases from baseline | decreases from baseline | –
CCNC(=O)CCC/C=C\C[C@@H]1[C@@H](/C=C/[C@@H](O)CCc2ccccc2)[C@H](O)C[C@@H]1O [bimatoprost] | – | – | longer, thicker, and fuller in the treated eye
O=C(OCCO)c1ccc(CCCC2C(Cl)CC(O)C2COc2cc(Cl)cc(Cl)c2)s1 (centres unmarked) [Compound 33a] | decreases from baseline | decreases from baseline | –
O=C(OCCO)c1ccc(CCCC2=CCC(O)C2COc2cc(Cl)cc(Cl)c2)s1 (centres unmarked) [Compound 68a] | decreases from baseline | decreases from baseline | –
Cc1cc(C)cc(OCC2C(O)CC(Cl)C2CCCc2ccc(C(=O)OCCN3CCOCC3)s2)c1 (centres unmarked) [Compound 35b] | decreases from baseline | decreases from baseline | –
CC(=O)OCCc1cc(Cl)cc(OCC2C(O)CC(Cl)C2CC=CCCCC(=O)OCCN2CCOCC2)c1 (centres unmarked) [Compound 16b] | decreases from baseline | decreases from baseline | –
N#CC1CC(O)C(COc2cc(Cl)cc(Cl)c2)C1CCCc1ccc(C(=O)OCCO)s1 (centres unmarked) [Compound 58a] | decreases from baseline | decreases from baseline | –
O=C(OCCO)c1ccc(CCCC2C(=O)CCC2COc2cc(Cl)cc(CO)c2)s1 (centres unmarked) [Compound 46a] | decreases from baseline | decreases from baseline | –
COCc1cc(Cl)cc(OCC2C(O)CC(Cl)C2CC=CCCCC(=O)OCCN2CCOCC2)c1 (centres unmarked) [Compound 22b] | decreases from baseline | decreases from baseline | –
O=C(OCCN1CCOCC1)c1ccc(CCCC2C(Cl)CC(O)C2COc2cc(Cl)cc(CO)c2)s1 (centres unmarked) [Compound 34b] | decreases from baseline | decreases from baseline | –
CC(=O)OCCc1cc(Cl)cc(OCC2C(O)CC(Cl)C2CC=CCCCC(=O)OCCO)c1 (centres unmarked) [Compound 16a] | decreases from baseline | decreases from baseline | –
COCc1cc(Cl)cc(OCC2C(O)CC(Cl)C2CC=CCCCC(=O)OCCO)c1 (centres unmarked) [Compound 22a] | decreases from baseline | decreases from baseline | –
